This experiment addresses T1, CpGNA1 (Cryptosporidium parvum, UniProt Q5CPU3).
T1 construct: gene SSAT; E. coli BL21 Star; GST cut off with PreScission protease, GPLGS left at N terminus; dimer (sugar site formed by both monomers)
Kind of experiment: X-ray crystal structure, […] Å. In kind it is binding.

T1 sequence (Q5CPU3 whole entry): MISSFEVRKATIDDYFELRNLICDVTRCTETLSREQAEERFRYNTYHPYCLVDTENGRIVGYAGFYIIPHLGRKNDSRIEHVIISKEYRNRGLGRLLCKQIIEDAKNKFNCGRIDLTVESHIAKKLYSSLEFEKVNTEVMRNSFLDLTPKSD

On to `O=P(O)(O)OC[C@H]1OC(O)[C@H](O)[C@@H](O)[C@@H]1O` (some centres unmarked) [Glc6P], for which the “X-ray crystal structure, 1.95 Å” value (crystal soaked with 50 mM Glc6P and 50 mM acetyl-CoA, pseudosubstrate in GlcN6P site) was “dimeric structure of CpGNA1 in complex with acetyl-CoA and glucose-6-phosphate (Glc6P)”.
On to `CC(=O)SCCNC(=O)CCNC(=O)[C@H](O)C(C)(C)COP(=O)(O)OP(=O)(O)OC[C@H]1O[C@@H](n2cnc3c(N)ncnc32)[C@H](O)[C@@H]1OP(=O)(O)O` [acetyl-CoA], for which the “X-ray crystal structure, 1.95 Å” value (cocrystallized with 10 mM acetyl-CoA, soaked with 50 mM acetyl-CoA and 50 mM Glc6P, acetyl-CoA site) was “dimeric structure of CpGNA1 in complex with acetyl-CoA and glucose-6-phosphate (Glc6P)”.
